Measured values published in patent US20030055065A1, “Tricyclic amide and urea compounds useful for inhibition of G-protein function and for treatment of proliferative diseases” (priority 1993, published 2003).
Where “and” joins values, the source holds several entries; their conditions need not be identical. Identical values can stand only once. Like-named read-outs stand apart in the source and are kept apart here.

Tests used:
[1] = tested on: Ras-CVLS processing in COS monkey kidney cells; experiment: COS cell assay: Ras-CVLS processing (Western blot); type: cell-based; conditions: COS cells; for IC50: read-out: Inhibition of Ras Processing IC50; for Inhibition of Ras Processing at the concentration in parentheses: (5) μM
Method: 2. […] Effect of farnesyl protein transferase inhibitors on Ras processing and on disordered cell growth induced by transforming Ras. COS monkey kidney cells were transfected by electroporation with the plasmid pSV-SPORT (Gibco/BRL) containing a cDNA insert encoding either Ras-CVLS or Ras-CVLL, leading to transient overexpression of a Ras substrate for either farnesyl protein transferase or geranylgeranyl protein transferase I, respectively (see above). […] After 24 hours, media was removed and fresh media containing the appropriate drugs was re-added. 48 hours after electroporation cells were examined under the microscope to monitor disordered cell growth induced by transforming Ras. Cells expressing transforming Ras become more rounded and refractile and overgrow the monolayer, reminiscent of the transformed phenotype. […] Cells were lysed by homogenization and cell debris was removed by centrifugation at 2000×g for 10 min. Cellular protein was precipitated by addition of ice-cold trichloroacetic acid and redissolved in 100 μl of SDS-electrophoresis sample buffer. […] Proteins resolved on the gels were electroblotted onto nitrocellulose membranes for immunodetection. […] E., et al., (1982), Monoclonal antibodies to the p21 products of the transforming gene of Harvey murine sarcome virus and of the cellular ras gene family, J. Virol. 43: 294-304), in PBS containing 1% fetal calf serum for one hour at room temperature. After washing, membranes were incubated for one hour at room temperature with a 1:5000 dilution of secondary antibody, rabbit anti-rat IgG conjugated to horseradish peroxidase, in PBS containing 1% fetal calf serum.

[2] = biological target: T1, geranylgeranyl protein transferase (GGPT) I (Rattus norvegicus, UniProt P53610+Q04631); experiment: Inhibition of geranylgeranyl protein transferase I (Ras-CVLL as acceptor); type: biochemical; conditions: for IC50: enzyme inhibition
T1 construct: were partially purified from rat brain by ammonium sulfate fractionation followed by Q-Sepharose
From the text: 1. In vitro enzyme assays: Inhibition of farnesyl protein transferase and geranylgeranyl protein transferase.
Both farnesyl protein transferase (FPT) and geranylgeranyl protein transferase (GGPT) I were partially purified from rat brain by ammonium sulfate fractionation followed by Q-Sepharose (Pharmacia, Inc.) anion exchange chromatography essentially as described by Yokoyama et al (Yokoyama, K., et al., (1991), A protein geranylgeranyltransferase from bovine brain: Implications for protein prenylation specificity, Proc. Natl. Acad. Sci USA 88: 5302-5306, the disclosure of which is incorporated herein by reference thereto). Human farnesyl protein transferase was also expressed in E. coli, using cDNA clones encoding both the α and β subunits. The methods used were similar to those published (Omer, C. et al., (1993), Characterization of recombinant human farnesyl protein transferase: Cloning, expression, farnesyl diphosphate binding, and functional homology with yeast prenyl-protein transferases, Biochemistry 32:5167-5176). Human farnesyl protein transferase was partially-purified from the soluble protein fraction of E. coli as described above. […] Two forms of val^12-Ha-Ras protein were prepared as substrates for these enzymes, differing in their carboxy terminal sequence. One form terminated in cysteine-valine-leucine-serine (Ras-CVLS) the other in cystein-valine-leucine-leucine (Ras-CVLL). Ras-CVLS is a substrate for the farnesyl protein transferase while Ras-CVLL is a substrate for geranylgeranyl protein transferase I. The cDNAs encoding these proteins were constructed so that the proteins contain an amino-terminal extension of 6 histidine residues. Both proteins were expressed in Escherichia coli and purified using metal chelate affinity chromatography. The radiolabelled isoprenyl pyrophosphate substrates, [^3H]farnesyl pyrophosphate and [3H]geranylgeranyl pyrophosphate, were purchased from DuPont/New England Nuclear.
The geranylgeranyl protein transferase I assay was essentially identical to the farnesyl protein transferase assay described above, with two exceptions: [^3H]geranylgeranylpyrophosphate replaced farnesyl pyrophosphate as the isoprenoid donor and Ras-CVLL was the protein acceptor.

[3] = biological target: T2, farnesyl protein transferase (FPT), partially purified from rat brain (Rattus norvegicus, UniProt Q02293+Q04631); experiment: Inhibition of farnesyl protein transferase (transfer of [3H]farnesyl to Ras-CVLS); type: biochemical; conditions: for IC50: read-out: FPT IC50
T2 construct: were partially purified from rat brain by ammonium sulfate fractionation followed by Q-Sepharose
Outline: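 Partially purified farnesyl protein transferase with His6-tagged val12-Ha-Ras-CVLS substrate and [3H]farnesyl pyrophosphate, 30 min at room temperature. Stopped with SDS/TCA, precipitated Ras collected on GF/C filters; percent inhibition relative to DMSO vehicle control.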

[4] = tested on: Normal human HEPM fibroblasts; experiment: Cell Mat Assay: density of mat cells (mIC50); type: cell-based
Outline: (§1)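 Serial compound dilutions added 24 h after planting T24-BAG4 cells onto a mat of normal cells, then 14 d colony growth; monolayers glutaraldehyde-fixed and tumor cells X-Gal stained. tIC50 and mIC50 from microscope counts of colonies, cells per colony and mat cell density.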

[5] = tested on: T24-BAG4 human bladder carcinoma cells expressing an activated H-ras gene; experiment: Cell Mat Assay: tumor cell colony inhibition (tIC50); type: cell-based; conditions: inhibition of tumor cell growth
Outline: as §1

[6] = Ras-CVLS farnesylation, partially purified rat brain FPT

T1 sequence (P53610 whole entry, one chain of several): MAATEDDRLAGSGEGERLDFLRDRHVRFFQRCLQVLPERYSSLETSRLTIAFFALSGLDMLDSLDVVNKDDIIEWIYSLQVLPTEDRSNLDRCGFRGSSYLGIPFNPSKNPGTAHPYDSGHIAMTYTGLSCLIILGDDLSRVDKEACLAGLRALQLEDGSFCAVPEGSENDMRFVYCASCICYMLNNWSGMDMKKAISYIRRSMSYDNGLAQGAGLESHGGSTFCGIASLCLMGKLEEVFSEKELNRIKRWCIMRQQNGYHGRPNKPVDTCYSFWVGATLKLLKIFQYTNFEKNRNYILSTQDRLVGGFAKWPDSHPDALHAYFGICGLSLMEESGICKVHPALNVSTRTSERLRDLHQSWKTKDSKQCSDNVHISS
T2 sequence (Q02293 whole entry, one chain of several): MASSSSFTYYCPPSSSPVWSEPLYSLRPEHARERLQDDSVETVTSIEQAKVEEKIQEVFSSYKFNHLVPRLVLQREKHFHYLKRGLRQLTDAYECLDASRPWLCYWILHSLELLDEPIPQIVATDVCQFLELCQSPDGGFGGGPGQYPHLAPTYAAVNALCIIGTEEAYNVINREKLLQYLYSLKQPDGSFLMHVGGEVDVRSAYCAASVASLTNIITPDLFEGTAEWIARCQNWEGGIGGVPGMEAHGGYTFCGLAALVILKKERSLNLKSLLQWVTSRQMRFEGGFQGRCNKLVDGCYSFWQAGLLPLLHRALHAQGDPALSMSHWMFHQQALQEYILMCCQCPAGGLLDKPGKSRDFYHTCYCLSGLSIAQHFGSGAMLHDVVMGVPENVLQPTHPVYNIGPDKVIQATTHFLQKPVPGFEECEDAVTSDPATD

SMILES | IC50 ([1]; Primates, COS) | IC50 [3, 6] | IC50 [2] | IC50 ([4]; Homo sapiens, Fibroblast) | IC50 ([5]; Homo sapiens) | other results
O=C(CN1CCS(=O)(=O)CC1)N1CCC(=C2c3ccc(Cl)cc3CCc3cc(Br)cnc32)CC1 [Example 410-G] | 4 µM | 210 nM | – | – | – | GGPT inhibition at the concentration in parentheses ([2]; (33) μM): 32 (33); IC50 ([3]; enzyme inhibition): 210 nM
O=C(Cc1cc[n+]([O-])cc1)N1CCC(C2c3ccc(Cl)cc3CCc3cccnc32)CC1 (stereo not shown) [Example 234] | 2.2 µM | 330 nM | > 43 µM | > 50 µM | 3.1 µM | –
O=C(Nc1ccc2c(c1)CCc1cccnc1C2=C1CCN(C(=O)Cc2ccncc2)CC1)OCc1ccccc1 [Example 437] | – | – | – | – | – | melting point: 132.8 to 133.7 °C; FPT inhibition at the concentration in parentheses ([3]; (11) μM): 36 (11)
O=C(Nc1ccccc1)N1CCC(=C2c3ccc(Cl)cc3CCc3cccnc32)CC1 [Example 293] | > 11.1 µM | 1760 nM and 470 nM | > 40 µM | > 50 µM | 12.5 µM | IC50 [1]: 6.5 µM
O=C(Cc1cccnc1)N1CCN(C2c3ccc(Cl)cc3CCc3cc(Br)cnc32)CC1 (stereo not shown) [Example 351] | 2.8 µM | 170 nM | 1000 µM | 25 µM | 6.25 µM | –
O=C(Cc1ccncc1)N1CCC(=C2c3cc(Cl)c(Cl)cc3CCc3cccnc32)CC1 [Example 311] | 9.5 µM | 610 nM | 41.3 µM | > 50 µM | 10 µM | –
O=C(Cc1cc[n+]([O-])cc1)N1CCC(C2c3ccc(Cl)cc3C=Cc3cc(Br)cnc32)CC1 (stereo not shown) [Example 400-C] | 0.7 µM | 30 nM | > 38 µM | > 25 µM | < 1.6 µM | IC50 ([3]; enzyme inhibition): 30 nM
O=C(Nc1ccccc1)N1CCC(=C2c3ccc(Cl)cc3CCc3c2ncc(Br)c3Cl)CC1 [Example 414] | – | – | – | – | – | melting point: 125.6 °C (dec.); IC50 ([3]; enzyme inhibition): 900 nM
O=C(Nc1ccncc1)N1CCC(=C2c3ccc(Cl)cc3CCc3cccnc32)CC1 [Example 291] | 3.6 µM | 870 nM | > 46 µM | > 50 µM | 18 µM | –
O=C(Cc1ccncc1)N1CCC(=C2c3ccc(Cl)cc3CCc3cc([N+](=O)[O-])cnc32)CC1 [Example 358] | – | 570 nM | – | – | – | melting point: 111.3 to 112.2 °C
O=C(Cc1ccnc(Br)c1)N1CCC(=C2c3ccc(Cl)cc3CCc3cc(Br)cnc32)CC1 [Example 506] | – | – | – | – | – | melting point: 134 to 136.1 °C
CC(C)(C(=O)N1CCC(C2c3ccc(Cl)cc3CCc3cccnc32)CC1)c1ccccc1 (stereo not shown) [Example 316] | 18.4 µM | 1260 nM | > 43 µM | > 50 µM | 25 µM | –
O=C(C(CO)c1ccccc1)N1CCC(=C2c3ccc(Cl)cc3CCc3cccnc32)CC1 (stereo not shown) [Example 41, 8-chloro-1-[ -(2-hydroxy-1-phenylethylcarbonyl)-4-piperidylidene]-6,11-dihydro-5H-benzo[5,6]-cyclohepta-[1,2-b]pyridine] | – | 6100 nM | – | – | – | melting point: 92.7 to 93 °C
O=C(Cc1ccncc1)N1CCC(C2c3ccc(Cl)cc3C=Cc3cc(Br)cnc32)CC1 (stereo not shown) [Example 400-G] | 0.58 µM | 24 nM | > 39 µM | > 25 µM | 1.6 µM | IC50 ([3]; enzyme inhibition): 24 nM
CN1CCC(CC(=O)N2CCC(=C3c4ccc(Cl)cc4CCc4cc(Br)cnc43)CC2)CC1 [Example 400-H] | 2.5 µM | 240 nM | 1000 µM | – | – | Inhibition of Ras Processing at the concentration in parentheses [1]: 100 (5); GGPT inhibition at the concentration in parentheses ([2]; (36) μM): 0 (36); IC50 ([3]; enzyme inhibition): 240 nM
O=C(Nc1cccnc1)N1CCC(=C2c3ccc(Cl)cc3CCc3cccnc32)CC1 [Example 292] | 6.8 µM | 990 nM | > 44 µM | > 50 µM | 6.25 µM | –
O=C(Cc1cc[n+]([O-])cc1)N1CCC(=C2c3ccc(Cl)cc3CCc3cccnc32)CC1 [Example 227] | – | – | – | – | – | melting point: 128 to 130 °C
O=C(Nc1ccccc1)N1CCC(C2c3ccc(Cl)cc3CCc3cccnc32)CC1 (stereo not shown) [Example 312] | 3.8 µM | 900 nM | > 46 µM | > 50 µM | 12.5 µM | –
O=C(Cc1cc[n+]([O-])cc1)N1CCC(=C2c3ccc(Cl)cc3CCc3cccnc32)CC1 [227 (5.102)] | – | – | > 41 µM | – | – | IC50 [1]: 1 µM; IC50 [4]: > 50 µM; IC50 [5]: 4 µM
CN1CCCC(CC(=O)N2CCC(=C3c4ccc(Cl)cc4CCc4cc(Br)cnc43)CC2)C1 (stereo not shown) [Example 400-K] | 2.2 µM | 210 nM | 1000 µM | – | – | Inhibition of Ras Processing at the concentration in parentheses [1]: 100 (5); GGPT inhibition at the concentration in parentheses ([2]; (37) μM): 0 (37); IC50 ([3]; enzyme inhibition): 210 nM
O=C(Nc1ccncc1)N1CCC(C2c3ccc(Cl)cc3CCc3cccnc32)CC1 (stereo not shown) [Example 314] | 3 µM | 830 nM | > 46 µM | > 50 µM | 4 µM | –
CO[C@](C(=O)N1CCC(=C2c3ccc(Cl)cc3CCc3cccnc32)CC1)(c1ccccc1)C(F)(F)F [Example 287] | > 10 µM | 720 nM and 5020 nM | > 40 µM | > 50 µM | – | –
CC(C)(C(=O)N1CCC(=C2c3ccc(Cl)cc3CCc3cccnc32)CC1)c1ccccc1 [Example 289] | > 10 µM | 1440 nM and 1400 nM | > 40 µM | > 50 µM | 12.5 µM | IC50 [5]: 18 µM
O=C(Nc1cccnc1)N1CCC(C2c3ccc(Cl)cc3CCc3cccnc32)CC1 (stereo not shown) [Example 313] | 1.5 µM | 970 nM | > 46 µM | > 50 µM | 6.25 µM | –
O=C(Cc1ccc(Br)cc1)N1CCN(C2c3ccc(Cl)cc3CCc3cccnc32)CC1 (stereo not shown) [Example 77] | – | – | > 39 µM | – | – | IC50 [1]: 9.2 µM; IC50 [4]: > 50 µM; IC50 [5]: > 50 µM
O=C(OC(C(=O)N1CCC(=C2c3ccc(Cl)cc3CCc3cccnc32)CC1)c1ccccc1)c1ccncc1 (stereo not shown) [Example 298] | > 9 µM | 4580 nM | > 35 µM | > 50 µM | > 50 µM | –
Cc1cnc2c(c1)CCc1cc(Cl)ccc1C2=C1CCN(C(=O)Cc2cccnc2)CC1 [Example 303] | 3.4 µM | 550 nM | > 43 µM | > 50 µM | 8 µM | –
O=C(Cc1cc[n+]([O-])cc1)N1CCC(=C2c3ccc(Cl)cc3C=Cc3cc(Br)cnc32)CC1 [Example 417-B] | – | – | – | > 25 µM | < 1.6 µM | GGPT inhibition at the concentration in parentheses ([2]; (32) μM): 15 (32); IC50 ([3]; enzyme inhibition): 140 nM
O=C(Cc1ccc[n+]([O-])c1)N1CCC(C2c3ccc(Cl)cc3C=Cc3cc(Br)cnc32)CC1 (stereo not shown) [Example 400-D] | 2 µM | 210 nM | > 38 µM | > 25 µM | 4 µM | IC50 ([3]; enzyme inhibition): 210 nM
